Experimental data published in PubChem BioAssay (NCI).
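Compound exposure: 48 hours, 5 concentrations, 96-well plates. GI50 = concentration required for 50% inhibition of growth. TGI: concentration producing complete growth inhibition.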

Experiments:
Assay in all cases: NCI anticancer screen, dose series, 48 h
BT-549 breast = system: BT-549 breast
SW-620 colon = system: SW-620 colon
NCI-H522 lung = system: NCI-H522 lung
NCI-H460 lung = system: NCI-H460 lung
UO-31 renal = system: UO-31 renal
MCF7 breast = system: MCF7 breast
MDA-MB-231 breast = system: MDA-MB-231 breast
HS 578T breast = system: HS 578T breast
RXF 393 renal = system: RXF 393 renal
SNB-78 CNS = system: SNB-78 CNS

CNC1Cc2c[nH]c3cccc(c23)C12C=C(C)C(=O)O2 (configuration not stated)
TGI (BT-549 breast): > 100 µM | TGI (SW-620 colon): > 100 µM | TGI (NCI-H522 lung): > 100 µM | TGI (NCI-H460 lung): > 100 µM | TGI (UO-31 renal): > 100 µM | TGI (MCF7 breast): > 100 µM | TGI (MDA-MB-231 breast): > 100 µM | TGI (HS 578T breast): > 100 µM | TGI (RXF 393 renal): > 100 µM

Cc1cc2c(c(O)c1-c1c(C)cc(O)c3c1C(=O)C=CC3=O)C(=O)C=CC2=O
TGI (BT-549 breast): > 25.5 µM | TGI (NCI-H460 lung): 44.5 µM | TGI (UO-31 renal): 3.44 µM | TGI (MDA-MB-231 breast): 4.88 µM | TGI (HS 578T breast): 32.9 µM | TGI (RXF 393 renal): 2.5 µM

C[C@@H]1C(=O)O[C@H]1[C@H](O)CO
TGI (BT-549 breast): > 100 µM | TGI (SW-620 colon): > 100 µM | TGI (NCI-H460 lung): > 100 µM | TGI (MCF7 breast): > 100 µM | TGI (RXF 393 renal): > 100 µM

C[Si](C)(C)c1ccc(-c2c3ccc(-c4cc(Br)cc(Br)c4)nc3nc3nc(-c4cc(Br)cc(Br)c4)ccc23)cc1
TGI (BT-549 breast): > 100 µM | TGI (NCI-H522 lung): > 100 µM | TGI (NCI-H460 lung): > 100 µM | TGI (UO-31 renal): > 100 µM | TGI (MCF7 breast): > 100 µM | TGI (MDA-MB-231 breast): > 100 µM

COc1cc(/C=C2\N=C(c3ccccc3)N(c3ccc(C(=O)c4ccccc4)cc3N3C(=O)/C(=C/c4ccc(O)c(OC)c4)N=C3c3ccccc3)C2=O)ccc1O
TGI (BT-549 breast): > 100 µM | TGI (SW-620 colon): > 100 µM | TGI (NCI-H460 lung): 20.2 µM | TGI (UO-31 renal): 27.6 µM | TGI (MCF7 breast): 20.2 µM | TGI (MDA-MB-231 breast): 43.8 µM | TGI (HS 578T breast): 46.6 µM

O=C1c2cccnc2C(=O)c2c1c(C(=O)OCCN1CCCCC1)c1ccccn21
GI50 (BT-549 breast): 0.152 µM | TGI (BT-549 breast): 2.16 µM | GI50 (SW-620 colon): 0.0187 µM | TGI (SW-620 colon): 0.362 µM | GI50 (NCI-H522 lung): 0.018 µM | TGI (NCI-H522 lung): 0.0992 µM | GI50 (NCI-H460 lung): 0.005 µM | TGI (NCI-H460 lung): 0.0128 µM | GI50 (UO-31 renal): 0.0389 µM | TGI (UO-31 renal): 1.67 µM | GI50 (MCF7 breast): 0.00575 µM | TGI (MCF7 breast): 0.0767 µM | GI50 (MDA-MB-231 breast): 0.731 µM | TGI (MDA-MB-231 breast): 12.6 µM | GI50 (HS 578T breast): 0.0723 µM | TGI (HS 578T breast): 0.376 µM | GI50 (RXF 393 renal): 0.0615 µM | TGI (RXF 393 renal): 0.235 µM

C=C1C(=O)O[C@@H]2/C=C(\C)CC/C=C(\C)CC[C@@]12O
TGI (BT-549 breast): 7.81 µM | TGI (SW-620 colon): 3.46 µM | TGI (NCI-H522 lung): 1.38 µM | TGI (NCI-H460 lung): 31.5 µM | TGI (UO-31 renal): 2.86 µM | TGI (MCF7 breast): 14.5 µM | TGI (MDA-MB-231 breast): 22.8 µM | TGI (HS 578T breast): 22.7 µM | TGI (RXF 393 renal): 0.897 µM

CCCCCCCCCCCCCC1=C(O)C(=O)C(CC2=C(O)C(=O)C(CCCCCCCCCCCCC)=C(O)C2=O)=C(O)C1=O
TGI (BT-549 breast): > 100 µM | TGI (SW-620 colon): > 100 µM | TGI (NCI-H522 lung): > 100 µM | TGI (UO-31 renal): > 100 µM | TGI (MCF7 breast): > 100 µM | TGI (MDA-MB-231 breast): > 100 µM | TGI (HS 578T breast): > 100 µM | TGI (RXF 393 renal): 32.2 µM

CC(=O)O[C@H]1CC[C@H]2[C@@H]3CCC4=CC(=O)C=C[C@]4(O)[C@H]3CC[C@]12C
TGI (BT-549 breast): > 79.8 µM | TGI (SW-620 colon): > 57.5 µM | TGI (NCI-H460 lung): > 100 µM | TGI (UO-31 renal): > 100 µM | TGI (MCF7 breast): > 83.5 µM | TGI (MDA-MB-231 breast): > 100 µM | TGI (RXF 393 renal): 76 µM

CC(C)(C)c1ccc2c(c1)C#Cc1cc(C(C)(C)C)ccc1OCCCO2
TGI (BT-549 breast): > 100 µM | TGI (SW-620 colon): > 100 µM | TGI (NCI-H522 lung): > 100 µM | TGI (NCI-H460 lung): > 100 µM | TGI (UO-31 renal): > 100 µM | TGI (MCF7 breast): > 100 µM | TGI (MDA-MB-231 breast): > 100 µM | TGI (HS 578T breast): > 100 µM | TGI (RXF 393 renal): > 100 µM

CC(=O)Nc1cccc(N2C(=O)/C(=C\c3cccc(Oc4ccccc4)c3)S(=O)(=O)C2c2ccccc2)c1 (configuration not stated)
TGI (BT-549 breast): > 100 µM | TGI (SW-620 colon): > 100 µM | TGI (NCI-H522 lung): > 100 µM | TGI (NCI-H460 lung): > 100 µM | TGI (UO-31 renal): > 100 µM | TGI (MCF7 breast): > 100 µM | TGI (MDA-MB-231 breast): > 100 µM | TGI (RXF 393 renal): > 100 µM

CCCCCCCCCCCCCCCCCCNc1ccn(C2OC(CO)C(OP(=O)(O)OCC(O)COP(=O)(O)OCC3OC(n4cc(F)c(NCCCCCCCCCCCCCCCCCC)nc4=O)CC3O)C2O)c(=O)n1 (configuration not stated)
TGI (BT-549 breast): > 50 µM | TGI (SW-620 colon): > 50 µM | TGI (NCI-H522 lung): > 50 µM | TGI (NCI-H460 lung): > 50 µM | TGI (UO-31 renal): > 50 µM | TGI (MCF7 breast): > 50 µM | TGI (MDA-MB-231 breast): > 50 µM | TGI (HS 578T breast): > 50 µM

Nc1ccc(O)c2c1C(=O)c1c(N)ccc(O)c1C2=O
TGI (SW-620 colon): > 100 µM | TGI (NCI-H522 lung): > 100 µM | TGI (NCI-H460 lung): > 100 µM | TGI (UO-31 renal): > 100 µM | TGI (SNB-78 CNS): > 100 µM | TGI (RXF 393 renal): > 100 µM

CN(Cc1cn(O)c2nc(=N)nc(N)c-2n1)c1ccc(C(=O)NC23CC4CC(CC(C4)C2)C3)cc1
TGI (BT-549 breast): 79.1 µM | TGI (SW-620 colon): > 100 µM | TGI (NCI-H460 lung): > 100 µM | TGI (UO-31 renal): > 100 µM | TGI (MCF7 breast): > 100 µM | TGI (MDA-MB-231 breast): > 100 µM | TGI (HS 578T breast): 40.4 µM | TGI (RXF 393 renal): 94.9 µM

CC(C)(C)OC(=O)N1C(OP(=O)(Oc2ccccc2)Oc2ccccc2)=CSc2ccccc21
TGI (BT-549 breast): > 100 µM | TGI (SW-620 colon): > 100 µM | TGI (NCI-H522 lung): > 100 µM | TGI (NCI-H460 lung): > 100 µM | TGI (UO-31 renal): > 100 µM | TGI (MCF7 breast): > 100 µM | TGI (MDA-MB-231 breast): 77.6 µM | TGI (HS 578T breast): > 100 µM | TGI (RXF 393 renal): > 100 µM

CCOC(=O)C1(C/C=C/CCl)CCCC1=O (configuration not stated)
TGI (BT-549 breast): 40.8 µM | TGI (SW-620 colon): 42.1 µM | TGI (NCI-H522 lung): 47 µM | TGI (NCI-H460 lung): > 100 µM | TGI (UO-31 renal): 39.7 µM | TGI (MCF7 breast): 48.4 µM | TGI (MDA-MB-231 breast): 42.5 µM | TGI (HS 578T breast): > 100 µM | TGI (RXF 393 renal): 32.7 µM

S=c1c2[nH]cnc2ncn1CCSC1=NC=NC2=NC=NC21 (configuration not stated)
TGI (BT-549 breast): > 100 µM | TGI (SW-620 colon): > 100 µM | TGI (NCI-H522 lung): > 100 µM | TGI (NCI-H460 lung): > 100 µM | TGI (UO-31 renal): > 100 µM | TGI (MCF7 breast): > 100 µM | TGI (SNB-78 CNS): > 100 µM | TGI (MDA-MB-231 breast): > 100 µM | TGI (HS 578T breast): > 100 µM | TGI (RXF 393 renal): > 100 µM
